Measured values taken from PMC7928264 (Journal of pharmacy & pharmaceutical sciences : a …, 2014).
Where a name gives a salt, the structure may show the parent alone. Read-outs that look alike come from different tables or passages of the source.

Tests used:
OCTs = settings: for Inhibition of tacrine uptake vs untreated control: 30 min pre-incubation, 1 μM tacrine 5 min, SCHs day 1
OATPs = OATPs inhibition study with rifampicin on tacrine cellular accumulation; type: in vitro ADME, rat; settings: data not shown
[1] = test system: sandwich-cultured primary rat hepatocytes (SCHs)
[2] = test system: sandwich-cultured primary rat hepatocytes (SCHs); settings: 5 min, 1 μM
[3] = test system: sandwich-cultured primary rat hepatocytes (SCHs); settings: 1 μM
[4] = human, in vivo; cited from earlier work
hepatic transaminase = settings: human, in vivo; cited from earlier work
P-gp = settings: 5 μM valspodar, 1 μM tacrine, 10 min, SCHs day 4

In the case of `COc1ccc(CCN(C)CCCC(C#N)(c2ccc(OC)c(OC)c2)C(C)C)cc1OC` (stereo not shown) [verapamil, verapamil hydrochloride], the “Inhibition of tacrine uptake vs untreated control” value (“Inhibition … vs untreated control” for short) (OCTs; inhibitor 50 μM) was greater than 50%, the “Concentration giving maximal inhibition of tacrine uptake” value (OCTs; verapamil tested at 10, 50 and 100 μM, concentration-dependent, P<0.001) was 100 µM and the “Reduction in tacrine uptake” value (OCTs; verapamil, concentration not given, SCHs) was 3 fold.

For `CO[C@H]1/C=C/O[C@@]2(C)Oc3c(C)c(O)c4c(O)c(c(/C=N/N5CCN(C)CC5)c(O)c4c3C2=O)NC(=O)/C(C)=C\C=C\[C@H](C)[C@H](O)[C@@H](C)[C@@H](O)[C@@H](C)[C@H](OC(C)=O)[C@@H]1C` [rifampicin], the “Effect on tacrine cellular accumulation” value (OATPs) was “did not alter tacrine cellular accumulation”.

With `Nc1c2c(nc3ccccc13)CCCC2` [tacrine, 9-amino-1,2,3,4-tetrahydroacridine] the “Time at which uptake reaches a plateau” value ([1]; 1 μM tacrine, SCHs day 1) was 10 min, the “Uptake Vmax” value ([1]; SCHs, day 1, saturable uptake (37°C minus 4°C), tacrine 0.1–500 μM) was 908±72 pmol/min/mg protein and the Average uptake ([2]; pH 6.4) was 68±4 pmol/min/mg protein. The “Decrease in uptake compared to neutral pH (7.4)” value ([2]; pH 6.4) was “approximately 3 fold”, the Average uptake ([2]; pH 7.4) was 405±16 pmol/min/mg protein and the Average uptake ([2]; pH 8.4) was 816±62 pmol/min/mg protein. The “Increase in uptake compared to neutral pH (7.4)” value ([2]; pH 8.6) was roughly 2 fold, the “Time of maximum biliary excretion” value [3] was 10 min and the BEI% ([3]; 10 min) was 22.9±1.9%. For the same compound, the Oral bioavailability [4] was 17–24% and the “Patients with significantly elevated hepatic transaminase concentrations” value (hepatic transaminase) was 25%.

With `COCCCC/C(=N\OCCN)c1ccc(C(F)(F)F)cc1` [fluvoxamine, Fluvoxamine maleate] the “Inhibition … vs untreated control” value (OCTs; inhibitor 50 μM) was greater than 50%.

In the case of `C/C=C/C[C@@H](C)C(=O)[C@H]1C(=O)N[C@@H](C(C)C)C(=O)N(C)CC(=O)N(C)[C@@H](CC(C)C)C(=O)N[C@@H](C(C)C)C(=O)N(C)[C@@H](CC(C)C)C(=O)N[C@@H](C)C(=O)N[C@H](C)C(=O)N(C)[C@@H](CC(C)C)C(=O)N(C)[C@@H](CC(C)C)C(=O)N(C)[C@@H](C(C)C)C(=O)N1C` [valspodar], the “Reduction of tacrine BEI%” value (P-gp) was “approximately 60%”.

For `CC[N+](CC)(CC)CC` [TEA, tetraethylammonium chloride], the “Inhibition … vs untreated control” value (OCTs; inhibitor 300 μM) was ~ 18%.

For `CN/C(=N/CCSCc1nc[nH]c1C)NC#N` [cimetidine], the “Inhibition … vs untreated control” value (OCTs; inhibitor 300 μM) was greater than 50%.
